Source: patent US7723021B2, “Methods for treating lentivirus infections” (The J. David Gladstone Institutes, priority 2003, dated 2010)
Entries after “also recorded” stand apart in the source; their conditions may differ. Non-standard residues stand in square brackets, D forms with d. Residues, ends and D or L forms follow the SMILES beside them. *: point of attachment. Nle = CCCC[C@H](N)C(=O)O; Cbz = O=C(OCc1ccccc1)*

Legend:
[1] = system: Vif-mediated depletion of APOBEC3G-HA in 293T cells; test: Proteasome inhibitor panel in 293T cells transiently transfected with APOBEC3G-HA and Vif, immunoblot; format: cell-based; settings: 15 hours
Protocol: 293T cells were transfected with the indicated amounts of expression vector DNA using the calcium phosphate method. Lysis buffers used for immunoblotting were (1) 100-400 mM NaCl, 50 mM Hepes, 0.2% NP40, 0-5 mM EDTA, 0.1 mM PMSF, plus complete protease inhibitor cocktail (Roche)(1 tablet/50 ml buffer) or (2) 50 mM Hepes, pH 7.2, 135 mM NaCl, 1% Triton X-100, 0.5% deoxycholate, 10% glycerol, 1 mM EDTA, 1× protease inhibitor cocktail (Calbiochem). Samples were analyzed using standard SDS-PAGE techniques.
(§1) For the proteasome inhibitor experiments in transiently transfected cells, 293T cells were transiently transfected with 0.1 μg of APOBEC3G-HA DNA, 2 μg of control vector DNA and 2 μg of either pcDNA3.1 Vif DNA vector or an additional 2 μg of control vector DNA. Twenty-four hours after transfection, the cells were treated with the indicated inhibitor and harvested 15 hours later. For the proteasome inhibitor experiments using infected H9 cells, H9 cells were infected by spinoculation as described above. Forty-four hours after infection, the cells were treated for 16 hours with either dimethylsulfoxide (DMSO) (0.1%) or 0.25 μM epoxomicin. All of the inhibitors (ALLN, MG132, epoxomicin, Calpain Inhibitor III, and clasto-Lactacystin-β-Lactone) were purchased from CalBiochem and were dissolved in DMSO.
To confirm this finding in a different system, a similar experiment was performed using 293T cells transiently transfected with an APOBEC3G-HA expression vector and either a Vif expression vector or a control vector. Twenty-four hours after transfection the cells were treated with a panel of different proteasome inhibitors for a 15-hour period. It was observed that the broadly acting proteasome inhibitors MG132 (12.5 μM) and ALLN (25 μM) as well as the more specific proteasome inhibitor clasto-Lactacystin-β-Lactone ([…], 20 μM) enhanced the levels of APOBEC3G-HA in the presence of Vif when compared to the diluent control sample (0.1% DMSO) (FIG. 8C, lanes 7 through 12).
(§2) FIG. 8A-C. Vif shortens the half-life of APOBEC3G, and proteasome inhibitors partially block the intracellular depletion of APOBEC3G-HA. (A) Pulse-Chase Radiolabeling. HEK 293 cells transiently transfected with APOBEC3G-HA and Vif or control vector DNA were pulse-labeled for 30 min. The initial pulse-labeled (t=0) samples were harvested, and the remaining samples were incubated with chase media for the indicated time points. After immunoprecipitation with anti-HA antibody, the samples were analyzed by SDS-PAGE and the gels were subjected to autoradiography. The relative intensity of the bands were quantified and the Vif (+) and Vif (−) samples were normalized to 1 and graphed (FIG. 8, right side). The T1/2 of APOBEC3G was 1.9 hours in the presence of Vif and 10 hours in the absence of Vif. (B) Proteasome inhibitor studies using infected H9 cells. Mock or HIV-1 wt-infected H9 cells were treated with the broadly active proteasome inhibitor epoxomicin (0.25 μM) or DMSO (0.1%) 44 hours after infection. Sixteen hours following treatment, the cells were harvested; and whole cell lysates were prepared by boiling the cells in Laemmli lysis buffer. Note that Epoxomicin caused an increase in endogenous APOBEC3G levels in the infected sample (compare lane 2 with lane 1). (C) Proteasome inhibitor studies using transiently-transfected 293T cells. Twenty-four hours following transfection of 293T cells with 0.1 μg APOBEC3G and 2 μg Vif or control vector DNA, the cells were treated with the indicated concentration of inhibitor for 15 hours. APOBEC3G-HA levels were elevated in the presence of the proteasome inhibitors MG132, ALLN, and clasto-lactacystin-β-lactone (lanes 8-11), but not in the presence of calpain inhibitor III (lane 12).

[2] = system: APOBEC3G in peripheral blood lymphocytes; test: PBLs incubated with stimulant for 48 hours, Western blot for APOBEC3G (Example 2); format: cell-based, Human; settings: incubated with stimulant for 48 hours versus unstimulated
Protocol: Human peripheral blood lymphocytes (PBLs) were isolated from blood and then incubated with anti-CD3 antibody (α-CD3), anti-CD28 antibody (α-CD28), IL-9, IL-12, IL-13, IL-15, or IFN-γ for 48 hours. Cells were lysed, the lysates clarified, and the protein concentration of the lysates was quantitated. Equal amounts of proteins in the lysates were separated by SDS-PAGE. After separation of the proteins by SDS-PAGE, the proteins were transferred to a membrane, and antibody to APOBEC3G was used to detect APOBEC3G protein on the membrane. The results are depicted in FIGS. 1-13.
FIG. 11 depicts the effect of PHA, anti-CD3 antibody, anti-CD28 antibody, and IL-15 on the level of APOBEC3G in peripheral blood lymphocytes. […] Western blot of cell lysates deriving from stimulated and unstimulated peripheral blood lymphocytes. PBLs were isolated from blood and then incubated with the indicated stimulant for 48 hours. Following separation of the proteins by SDS-PAGE, antibody to APOBEC3G was used to detect APOBEC3G protein. As a loading control, anti-β-actin was used to detect β-actin.

[3] = system: Vif-induced degradation of APOBEC3G (26S proteasome) in H9 cells; test: Proteasome inhibitor experiment in HIV-1 wt-infected or mock-infected H9 cells, immunoblot of whole cell lysates; format: cell-based, human; settings: 0.25 μM; for APOBEC3G levels in infected cells compared to DMSO-treated cells: treated 16 hours, 44 hours after infection
Protocol: as §1
To investigate whether the 26S proteasome might mediate the Vif-induced degradation of APOBEC3G, H9 cells were infected with HIV-1 wt or were mock-infected. […] Whole cell lysates were subsequently prepared by boiling the cells in Laemmli lysis buffer, followed by protein separation by SDS-PAGE and immunoblotting. As expected, APOBEC3G levels were much lower in the infected sample when compared to the uninfected sample (FIG. 8B, lanes 1 and 3).
as §2, with “APOBEC3G-HA levels were elevated in the presence of the proteasome inhibitors MG132, ALLN, and clasto-lactacystin-β-lactone (lanes 8-11), but not in the presence of calpain inhibitor III (lane 12).” left out

## CCCC[C@@H](C=O)NC(=O)[C@H](CC(C)C)NC(=O)[C@H](CC(C)C)NC(C)=O [ALLN] (Ac-Leu-Leu-[Nle]-aldehyde)
[1]; 25 μM
  levels of APOBEC3G-HA in the presence of Vif compared to diluent control (0.1% DMSO): enhanced; also recorded: elevated

## CC(C)[C@H](NC(=O)OCc1ccccc1)C(=O)N[C@H](C=O)Cc1ccccc1 [Calpain Inhibitor III] (Cbz-Val-Phe-aldehyde)
[1]; 50 μM
  levels of APOBEC3G-HA in the presence of Vif compared to diluent control (0.1% DMSO): did not cause an increase
[1]; 50 μM, listed as calpain inhibitor III
  levels of APOBEC3G-HA in the presence of Vif compared to diluent control (0.1% DMSO): not

## CCCCCCCCCCCCCC(=O)O[C@@H]1[C@@H](C)[C@@]2(O)[C@@H](C=C(CO)C[C@]3(O)C(=O)C(C)=C[C@@H]23)[C@@H]2C(C)(C)[C@]12OC(C)=O [PMA, phorbol-12-myristate-13-acetate]
[2]
  level of APOBEC3G in peripheral blood lymphocytes: upregulated

## CC(C)[C@H](O)[C@@]12NC(=O)[C@H](C)[C@@H]1OC2=O [clasto-Lactacystin-β-Lactone]
[1]; 110 μM, 20 μM
  levels of APOBEC3G-HA in the presence of Vif compared to diluent control (0.1% DMSO): enhanced
[1]; 110 μM, 20 μM, listed as clasto-lactacystin-β-lactone
  levels of APOBEC3G-HA in the presence of Vif compared to diluent control (0.1% DMSO): elevated

## CC[C@H](C)[C@H](NC(=O)[C@H]([C@@H](C)CC)N(C)C(C)=O)C(=O)N[C@H](C(=O)N[C@@H](CC(C)C)C(=O)[C@@]1(C)CO1)[C@@H](C)O [epoxomicin]
[3]; HIV-1 wt-infected H9 cells, 16 hours
  Vif levels: increase
[3]; HIV-1 wt-infected H9 cells
  APOBEC3G levels in infected cells compared to DMSO-treated cells: elevated
[3]; HIV-1 wt-infected H9 cells, listed as Epoxomicin
  APOBEC3G levels in infected cells compared to DMSO-treated cells: increase
[3]; mock-infected H9 cells, 16 hours
  level of APOBEC3G in the uninfected cultures: did not appear to cause a similar increase

## CC(=O)O[C@@]12C[C@@H](C)[C@@]3(O)[C@@H](C=C(CO)C[C@]4(O)C(=O)C(C)=C[C@@H]34)[C@@H]1C2(C)C [prostratin, 12-deoxyphorbol-13-acetate]
[2]
  level of APOBEC3G in peripheral blood lymphocytes: upregulated

## IL-15: cytokine
[2]
  level of APOBEC3G in peripheral blood lymphocytes: increased expression
